Data published in ChEMBL document CHEMBL1134981, “Pyrrolidine and piperidine analogues of SC-57461A as potent, orally active inhibitors of leukotriene A(4) hydrolase” (Bioorg Med Chem Lett, 2002).

Tests used:
Homo sapiens = species: Homo sapiens; assay: Inhibition of leukotriene B4 production in human whole blood; assay type: functional
Mus musculus [1] = species: Mus musculus; assay: Oral potency for Ex vivo inhibition of LTB4 production in mouse whole blood; assay type: functional
Mus musculus [2] = assay: Ex vivo inhibition of LTB4 production in mouse whole blood at 10 mg/kg; assay type: functional
[3] = target: T1, Leukotriene A-4 hydrolase (Homo sapiens, UniProt P09960); assay: Inhibition of leukotriene A4 hydrolase in human recombinant assay
T1 sequence (P09960 whole entry): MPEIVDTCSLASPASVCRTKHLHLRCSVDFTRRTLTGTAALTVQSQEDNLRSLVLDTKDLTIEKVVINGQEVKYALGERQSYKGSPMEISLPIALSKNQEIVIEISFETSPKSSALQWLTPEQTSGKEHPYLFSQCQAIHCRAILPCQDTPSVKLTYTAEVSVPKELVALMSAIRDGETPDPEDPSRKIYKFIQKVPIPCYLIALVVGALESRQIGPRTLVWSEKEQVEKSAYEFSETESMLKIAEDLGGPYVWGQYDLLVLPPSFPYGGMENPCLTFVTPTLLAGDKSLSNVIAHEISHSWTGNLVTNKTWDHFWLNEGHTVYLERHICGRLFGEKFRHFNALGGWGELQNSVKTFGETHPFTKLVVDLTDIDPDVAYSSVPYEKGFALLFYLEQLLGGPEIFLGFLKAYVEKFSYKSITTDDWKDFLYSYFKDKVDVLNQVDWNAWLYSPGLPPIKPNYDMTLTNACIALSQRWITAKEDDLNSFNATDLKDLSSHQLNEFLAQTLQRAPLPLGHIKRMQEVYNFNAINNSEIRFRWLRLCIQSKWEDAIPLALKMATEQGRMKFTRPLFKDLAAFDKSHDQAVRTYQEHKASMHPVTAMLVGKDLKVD

Rattus norvegicus [4] = species: Rattus norvegicus; assay: The compound was tested for oral efficacy in rat reversed passive dermal Arthus model; 3-10; assay type: functional
Rhesus monkey = assay: The compound showed excellent potency when dosed orally, inhibiting the production of Leukotriene B4; assay type: functional, Cercopithecidae; settings: Macaca mulatta, po
Rattus norvegicus [5] = assay: The compound was orally efficacious in rat peritoneal Leukotriene B4 production; assay type: functional; settings: po
Mus musculus [6] = species: Mus musculus; assay: Ex vivo inhibition of LTB4 production in mouse whole blood; assay type: functional

NC(=O)NC1CCN(CCOc2ccc(Cc3ccccc3)cc2)C1 (configuration not stated)
IC50 (Homo sapiens): 350 nM

c1ccc(Cc2ccc(OCCN3CCC(c4nnn[nH]4)CC3)cc2)cc1
ED90 (Mus musculus [1]): 3 mg/kg

c1ccc(Cc2ccc(OCCN3CCCCC3)cc2)cc1
inhibition in vivo at 10 mg/kg (Mus musculus [2]; Mus musculus, Blood): 8%

c1ccc(Cc2ccc(OCCN3CCCC3)cc2)cc1
IC50 (Homo sapiens): 120 nM

NC(=O)CC1CCN(CCOc2ccc(Cc3ccccc3)cc2)C1 (configuration not stated)
inhibition in vivo at 10 mg/kg (Mus musculus [2]; Mus musculus, Blood): 4% | IC50 (Homo sapiens): 400 nM

OCC1CCN(CCOc2ccc(Cc3ccccc3)cc2)CC1
IC50 [3]: 52 nM | inhibition in vivo at 10 mg/kg (Mus musculus [2]; Mus musculus, Blood): 85% | IC50 (Homo sapiens): 580 nM

CN(CCCOc1ccc(Cc2ccccc2)cc1)CCC(=O)O
inhibition in vivo at 10 mg/kg (Mus musculus [2]; Mus musculus, Blood): > 98% | ED90 (Mus musculus [1]): 1 mg/kg | IC50 (Homo sapiens): 49 nM

NC(=O)C1CCN(CCOc2ccc(Cc3ccccc3)cc2)CC1
IC50 [3]: 130 nM | inhibition in vivo at 10 mg/kg (Mus musculus [2]; Mus musculus, Blood): 95% | ED90 (Mus musculus [1]): 3 mg/kg | IC50 (Homo sapiens): 640 nM

CCOC(=O)C1CCN(CCOc2ccc(Cc3ccccc3)cc2)CC1
ED90 (Rattus norvegicus [4]): 3 mg/kg | IC50 [3]: 1800 nM | ED90 (Rhesus monkey): < 10 mg/kg | ED50 (Rattus norvegicus [5]): 3 mg/kg | ED90 (Rattus norvegicus [5]): 30 mg/kg | ED90 (Mus musculus [6]): 3 mg/kg | IC50 (Homo sapiens): 820 nM

NC(=O)NC1CCN(CCOc2ccc(Cc3ccccc3)cc2)CC1
IC50 (Homo sapiens): 440 nM

O=C(O)C1CCN(CCOc2ccc(Cc3ccccc3)cc2)CC1
IC50 [3]: 280 nM | inhibition in vivo at 10 mg/kg (Mus musculus [2]): 80% | IC50 (Homo sapiens): 290 nM

COC(=O)C1CCN(CCOc2ccc(Cc3ccccc3)cc2)C1 (configuration not stated)
IC50 (Homo sapiens): 230 nM

COC(=O)C1CC2CC1CN2CCOc1ccc(Cc2ccccc2)cc1 (configuration not stated)
IC50 [3]: 47 nM | inhibition in vivo at 10 mg/kg (Mus musculus [2]; Mus musculus, Blood): 50% | IC50 (Homo sapiens): 200 nM

N#CC1CCN(CCOc2ccc(Cc3ccccc3)cc2)CC1
inhibition in vivo at 10 mg/kg (Mus musculus [2]; Mus musculus, Blood): 56%

CNC(=O)C1CCN(CCOc2ccc(Cc3ccccc3)cc2)CC1
inhibition in vivo at 10 mg/kg (Mus musculus [2]; Mus musculus, Blood): 92% | IC50 (Homo sapiens): 130 nM

COC(=O)[C@@H]1CCCN1CCOc1ccc(Cc2ccccc2)cc1
inhibition in vivo at 10 mg/kg (Mus musculus [2]; Mus musculus, Blood): 0% | IC50 (Homo sapiens): 1860 nM

OC1CCN(CCOc2ccc(Cc3ccccc3)cc2)C1 (configuration not stated)
IC50 [3]: 30 nM | inhibition in vivo at 10 mg/kg (Mus musculus [2]; Mus musculus, Blood): 50%

CCOC(=O)C1CCCN(CCOc2ccc(Cc3ccccc3)cc2)C1 (configuration not stated)
IC50 [3]: > 3000 nM | IC50 (Homo sapiens): 1650 nM

NC(=O)C1CCN(CCOc2ccc(Cc3ccccc3)cc2)C1 (configuration not stated)
inhibition in vivo at 10 mg/kg (Mus musculus [2]; Mus musculus, Blood): 60% | IC50 (Homo sapiens): 360 nM

CCOC(=O)CNC(=O)C1CCN(CCOc2ccc(Cc3ccccc3)cc2)CC1
IC50 [3]: 110 nM | inhibition in vivo at 10 mg/kg (Mus musculus [2]; Mus musculus, Blood): 91% | ED90 (Mus musculus [1]): 3 mg/kg | IC50 (Homo sapiens): 700 nM

COC(=O)CC1CCN(CCOc2ccc(Cc3ccccc3)cc2)C1 (configuration not stated)
inhibition in vivo at 10 mg/kg (Mus musculus [2]; Mus musculus, Blood): 75% | ED90 (Mus musculus [1]): 10 mg/kg | IC50 (Homo sapiens): 240 nM

NC(=O)N1CCN(CCOc2ccc(Cc3ccccc3)cc2)CC1
IC50 (Homo sapiens): 2400 nM

NC1CCN(CCOc2ccc(Cc3ccccc3)cc2)C1 (configuration not stated)
IC50 (Homo sapiens): 290 nM

COC(=O)CC1CC2CC1CN2CCOc1ccc(Cc2ccccc2)cc1 (stereo in doubt; 26)
inhibition in vivo at 10 mg/kg (Mus musculus [2]; Mus musculus, Blood): 80% | ED90 (Mus musculus [1]): ≥ 10 mg/kg

CC(=O)NC1CCN(CCOc2ccc(Cc3ccccc3)cc2)CC1
IC50 (Homo sapiens): 180 nM

COC(=O)CC1CC2CC1CN2CCOc1ccc(Cc2ccccc2)cc1 (stereo in doubt; 27)
Inhibition (Mus musculus [2]; 10 mg/kg): 70%

CC(=O)NC1CCN(CCOc2ccc(Cc3ccccc3)cc2)C1 (configuration not stated)
inhibition in vivo at 10 mg/kg (Mus musculus [2]; Mus musculus, Blood): 22% | IC50 (Homo sapiens): 420 nM
